Assay results as given in PubChem BioAssay AID2743 (NMMLSC, 2010).
Values joined by “and” are separate entries in the source; they are usually repeats but may differ in a detail not shown here. Equal values may be shown once. Active and inactive are the calls of the source.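 How the source made its calls: active means fitted half-maximal concentration for change in GFP expression of 33 µM or less; inactive means the rest.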

Assay: concentration-dependent AGP1-GFP change, TOR pathway – cell-based, flow cytometry, S. cerevisiae, MLPCN hits, dose response (AID 2743)
Conditions: S. cerevisiae AGP1-GFP strain, flow cytometry GFP, 3 h; at 33 µM (top of the series)

Row | Structure (SMILES) | GFP fluorescence (kMESF)
1 | O=C(OCn1ncc(Br)c(Br)c1=O)c1ccccc1Cl | 46 kMESF (inactive)
2 | C/C(=N\Nc1ncnc2sc(C)c(C)c12)c1ccccn1 | 26.5 kMESF (inactive)
3 | COc1ccc(-c2cc(C(F)(F)F)nc(S(C)(=O)=O)n2)cc1 | 36 kMESF (inactive)
4 | Cc1ccc(NC(=O)ON=C2CCCC2)cc1 | 26.4 kMESF (inactive)
5 | O=c1c(-c2ccc(Cl)cc2)[n+]([O-])c2ccccc2n1O | 38.1 kMESF (inactive)
6 | CC(=O)Oc1cccc(N2C(=O)c3cccc4c([N+](=O)[O-])ccc(c34)C2=O)c1 | 31.2 kMESF (inactive)
7 | COc1ccc(/C=C2\C(=O)ON=C2c2ccccc2)cc1 | 28 kMESF (inactive)
8 | CC(C)CC(=O)NC(=S)Nc1nc(-c2ccccc2)cs1 | 38.8 kMESF (inactive)
9 | Cc1[nH]n(-c2ccccc2)c(=O)c1C(c1ccccc1[N+](=O)[O-])C(C#N)C#N (stereo not given) | 36.6 kMESF (inactive)
10 | C=CCOc1cccc(C(=O)/C=C2/C(=O)Nc3ccccc32)c1 | 43.2 kMESF (inactive)
11 | CC(Oc1ccc2ccccc2c1)C(=O)NNC(=S)NC(=O)c1ccco1 (stereo not given) | 32.1 kMESF (inactive)
12 | CC(C)(C)n1nc(-c2ccc(Cl)cc2)c2c(N)ncnc21 | 39.9 kMESF (inactive)
13 | O=C1C=CC(=O)N1c1ccc(N2CCCCC2)cc1 | 46.9 kMESF (inactive)
14 | O=C(O)c1cccc(S(=O)(=O)Nc2ccc(S(=O)(=O)N3CCOCC3)cc2)c1 | 36.9 kMESF (inactive)
15 | CCc1ccc(C(=O)/C=C/c2ccc([N+](=O)[O-])o2)cc1 | 49.5 kMESF (inactive)
16 | O=C1/C(=C\c2ccc(O)c(O)c2)SC(=S)N1Cc1ccccc1 | 10.8 kMESF (inactive)
17 | CCN(CC)c1ccc(/C=C2\C(=O)c3ccc(C(=O)O)cc3C2=O)cc1 | 747 kMESF (inactive)
18 | CS(=O)(=O)c1sc(C#N)c2c1C(=O)CC(c1ccccc1)C2 (stereo not given) | 38.9 kMESF (inactive)
19 | CCOc1ccc(C(C)=O)cc1N1C(=O)C2C3C=CC(O3)C2C1=O (stereo not given) | 40.5 kMESF (inactive)
20 | CCOc1ccc(N2C(=O)/C(=C\c3cccs3)C(=O)NC2=S)cc1 | 27.9 kMESF (inactive)
21 | CCC(=O)Oc1oc(-c2ccccc2)nc1C=Nc1ccccc1OC | 42.9 kMESF (inactive)
22 | O=c1c2cc(Cl)ccc2nc(-c2ccc([N+](=O)[O-])cc2)n1O | 23 kMESF (inactive)
23 | Cc1ccc(/C=C2\SC(=S)N(CC3CCCO3)C2=O)o1 (stereo not given) | 42 kMESF (inactive)

Row | Structure (SMILES) | GFP fluorescence (kMESF)
24 | O=C(Nc1nc(-c2ccccn2)cs1)c1cc2ccccc2o1 | 38.7 kMESF (inactive)
25 | O=C(NNC(=S)NC(=O)c1ccco1)c1ccc(F)cc1 | 43.7 kMESF (inactive)
26 | Cc1ccccc1[C@@]1(C)ON(c2ccccc2C(F)(F)F)C1=O | 29.8 kMESF (inactive)
27 | Cc1ccc(/C=C2\C(=O)NC(=S)N(c3ccccc3F)C2=O)s1 | 26.9 kMESF (inactive)
28 | O=C(/C=C/c1cc(Br)ccc1O)c1ccco1 | 40.2 kMESF (inactive)
29 | N/C(Cc1ccc(Cl)c(Cl)c1)=N\OC(=O)c1cccs1 | 29.8 kMESF (inactive)
30 | O=C(Nc1cccc(-c2csc(Nc3ccccc3)n2)c1)c1ccccc1 | 31 kMESF (inactive)
31 | O=C1C(Cl)=C(Nc2ccccc2O)C(=O)N1c1ccccc1 | 38.4 kMESF (inactive)
32 | CCOC(=O)c1c(C)oc2c1c(C(c1cccnc1)N1CCOCC1)c(O)c1ccccc12 (stereo not given) | 29.9 kMESF (inactive)
33 | COc1ccc(NC(=O)/C(Cl)=C(/Cl)S(=O)Cc2ccccc2)cn1 (stereo not given) | 38.3 kMESF (inactive)
34 | COc1ccc(/C=C/C(=O)NC(=S)NNC(=O)c2cnccn2)cc1 | 38.3 kMESF (inactive)
35 | CCCOc1ccc(C(=O)NNC(=S)NC(=O)c2ccco2)cc1 | 50.3 kMESF (inactive)
36 | Cc1ccc(S(=O)(=O)N2CC(C(=O)O)=CC[C@H]2c2ccc(Cl)cc2)cc1 | 39.2 kMESF (inactive)
37 | CCN1C(=O)/C(=C\C(=O)c2cccs2)c2cc(Br)ccc21 | 45.3 kMESF (inactive)
38 | O=c1cc(CSc2ccc(Cl)cc2)nc(-c2ccccn2)[nH]1 | 25.7 kMESF (inactive)
39 | Cn1ncc(S(=O)(=O)Cc2ccccc2)c(Cl)c1=O | 43.9 kMESF (inactive)
40 | O=C1NC(=O)N(Cc2ccco2)C(=O)/C1=C/c1ccc(-c2cccc([N+](=O)[O-])c2)o1 | 34.8 kMESF (inactive)
41 | CC(C)C(=O)NC(c1cccs1)c1cc([N+](=O)[O-])c2cccnc2c1O (stereo not given) | 38.9 kMESF (inactive)
42 | O=[N+]([O-])c1cc(Cl)c2cccnc2c1O | 22.6 kMESF (inactive)
43 | CCOC(=O)Cn1cc(/C=C/[N+](=O)[O-])c2ccccc21 | 43.7 kMESF (inactive)
44 | CCCc1nnc(NC(=O)c2c(O)c3cccc4c3n(c2=O)CCC4)s1 | 2.53 kMESF (inactive)
45 | CCN(CC(=O)Nc1cc(S(=O)(=O)N2CCOCC2)ccc1Cl)Cc1ccccc1 | 37.6 kMESF (inactive)
46 | O=C(C#Cc1ccccc1)c1ccco1 | 29.7 kMESF (inactive)

Row | Structure (SMILES) | GFP fluorescence (kMESF)
47 | COc1cc(NC(=O)c2cccc(C)c2)ccc1NC(=O)c1cc2ccccc2o1 | 44.2 kMESF (inactive)
48 | COc1cc(N=c2ssnc2Cl)cc(OC)c1 | 38.8 kMESF (inactive)
49 | N/C(Cc1ccc(Cl)cc1Cl)=N\OC(=O)c1ccccc1 | 29.1 kMESF (inactive)
50 | CCn1c(=O)c(C(C)=O)c(O)c2ccccc21 | 41.4 kMESF (inactive)
51 | O=C(Nc1ccccc1)ON=C1CCCC1 | 21.6 kMESF (inactive)
52 | COc1cc(C=C2C(=O)c3ccccc3C2=O)cc(OC)c1 | 38 kMESF (inactive)
53 | O=c1[nH]c(-c2ccc(Cl)cc2)cs1 | 39.4 kMESF (inactive)
54 | O=C1c2ccccc2C(=O)N1OS(=O)(=O)c1ccc(F)cc1 | 27 kMESF (inactive)
55 | CCOc1ccc(C(Nc2cccnc2)c2cc(Cl)c3cccnc3c2O)cc1 (stereo not given) | 36.3 kMESF (inactive)
56 | CCN1/C(=C/C=C/c2sc3ccccc3[n+]2CC)Sc2ccccc21 | 70 kMESF (inactive)
57 | COc1ccc2c(c1)S/C(=C\C(=O)c1ccncc1)N2C | 17.8 kMESF (inactive)
58 | COc1ccccc1[C@]1(C)ON(c2ccccc2C(F)(F)F)C1=O | 30.3 kMESF (inactive)
59 | Nc1nc(N)c2nc(CNc3ccc(C(=O)NC(CCC(=O)O)C(=O)O)cc3)cnc2n1 (stereo not given) | 46 kMESF (inactive)
60 | O=C(NC(=S)NNC(=O)c1cnccn1)c1ccc(F)cc1 | 37.3 kMESF (inactive)
61 | Cn1ncc2c(O/N=C(\N)c3ccc(C(C)(C)C)cc3)ncnc21 | 24.7 kMESF (inactive)
62 | O=C(/C=C/c1cccc([N+](=O)[O-])c1)c1ccc([N+](=O)[O-])o1 | 10.4 kMESF (inactive)
63 | CC[C@]1(c2ccccc2C)ON(c2ccccc2C(F)(F)F)C1=O | 38.9 kMESF (inactive)
64 | O=C1Oc2ccccc2C(=O)/C1=C/c1ccccc1O | 39.4 kMESF (inactive)
65 | COC(CNC(=O)c1ccc2c3c(onc13)-c1ccccc1C2=O)OC | 1.89 kMESF (inactive)
66 | C#CCOCCOCCOCCNc1nc(N2CCN(C(=O)CCCCCCCCCCNC(=O)[C@H](CCCCN)n3cc(CCO)nn3)CC2)nc(N2CCN(C(=O)CCCCCCCCCCNC(=O)[C@H](CCCN=C(N)N)n3cc(C[C@@H](C)CC)nn3)CC2)n1 | 45.1 kMESF (inactive)
67 | Cc1cccc(/C=C/C(=O)c2ccc([N+](=O)[O-])o2)c1 | 19.2 kMESF (inactive)
68 | COc1cccc(/C=N/Nc2ccc([N+](=O)[O-])cn2)c1O | 29.3 kMESF (inactive)
69 | COc1ccc(C2(C)ON(c3ccccc3C(F)(F)F)C2=O)cc1 (stereo not given) | 36.5 kMESF (inactive)

Row | Structure (SMILES) | GFP fluorescence (kMESF)
70 | N#C/C(=C\c1cc(Br)ccc1F)C(=O)NC1CC1 | 30.6 kMESF (inactive)
71 | Cc1cc(S(=O)(=O)ON2C(=O)c3ccccc3C2=O)ccc1F | 43.2 kMESF (inactive)
72 | Cc1cccc2c1NC(=O)/C2=C\C(=O)c1cccs1 | 43.9 kMESF (inactive)
73 | Cc1ccc(NN2C(=O)C=C(c3ccc(Cl)cc3)C2=O)cc1 | 44.4 kMESF (inactive)
74 | Oc1c(I)cc(I)c2cccnc12 | 24.6 kMESF (inactive)
75 | O=[N+]([O-])c1c(Nc2ccccn2)cc(Cl)c2nonc12 | 26.8 kMESF (inactive)
76 | Cc1sc(/C=C2\C(=O)ON=C2c2ccccc2)cc1Br | 34 kMESF (inactive)
77 | O=C(Nc1nnc(-c2ccc3c(c2)CCCC3)o1)c1ccc(Cl)cc1Cl | 20.9 kMESF (inactive)
78 | Cc1ccc(/C=C2/SC(=S)N(C3CCCCC3)C2=O)o1 | 41.3 kMESF (inactive)
79 | COc1ccc(C2=CC(=O)N(Nc3ccccc3)C2=O)cc1 | 39.9 kMESF (inactive)
80 | Cc1cc(NC(c2ccc(Cl)cc2)c2ccc3cccnc3c2O)no1 (stereo not given) | 34 kMESF (inactive)
81 | O=C(OCC(=O)N1CCN(C(=O)c2ccco2)CC1)c1cc(-c2ccc(F)cc2)nc2ccccc12 | 49.9 kMESF (inactive) and 40 kMESF (inactive)
82 | CCC(=O)Oc1oc(-c2ccccc2)nc1C=Nc1ccc(C)cc1 | 41.9 kMESF (inactive)
83 | O=C(CCc1ccccc1)NNC(=S)NC(=O)c1ccccc1 | 50.8 kMESF (inactive)
84 | N/C(=N\OC(=O)c1ccc(Cl)cc1Cl)c1ccccc1 | 27.3 kMESF (inactive)
85 | O=C(Oc1oc(-c2ccco2)nc1C=Nc1ccccc1)c1ccoc1 | 44.7 kMESF (inactive)
86 | COc1ccc2c(c1)c(/C=C/c1cc[n+](C)cc1)cn2C | 46.7 kMESF (inactive)
87 | CCOC(=O)COc1ccc2ccccc2c1/C=C/[N+](=O)[O-] | 29.3 kMESF (inactive)
88 | CCOc1ccc(NC2=C(Cl)C(=O)N(Cc3ccccc3)C2=O)cc1 | 41.3 kMESF (inactive)
89 | CCc1sc(C(=O)Nc2nc(-c3ccccn3)cs2)cc1C | 27.9 kMESF (inactive)
90 | CC(C)[C@]1(c2ccc(Cl)cc2)ON(c2ccccc2C(F)(F)F)C1=O | 39.3 kMESF (inactive)
